Blank lines part the entries; values can stand above or below the compound they belong to.
Key:
GlyT2 R439L mutant = biological target: T1, GlyT2 R439L mutant (Homo sapiens, UniProt Q9Y345, R439L); assay: Glycine transport currents, two electrode voltage clamp, oocytes expressing GlyT2 R439L; type: cell-based
T1 construct: expressed in transfected cells; host or cells: Xenopus laevis oocytes (cRNA injection)
T1 sequence (Q9Y345 1-797 R439L): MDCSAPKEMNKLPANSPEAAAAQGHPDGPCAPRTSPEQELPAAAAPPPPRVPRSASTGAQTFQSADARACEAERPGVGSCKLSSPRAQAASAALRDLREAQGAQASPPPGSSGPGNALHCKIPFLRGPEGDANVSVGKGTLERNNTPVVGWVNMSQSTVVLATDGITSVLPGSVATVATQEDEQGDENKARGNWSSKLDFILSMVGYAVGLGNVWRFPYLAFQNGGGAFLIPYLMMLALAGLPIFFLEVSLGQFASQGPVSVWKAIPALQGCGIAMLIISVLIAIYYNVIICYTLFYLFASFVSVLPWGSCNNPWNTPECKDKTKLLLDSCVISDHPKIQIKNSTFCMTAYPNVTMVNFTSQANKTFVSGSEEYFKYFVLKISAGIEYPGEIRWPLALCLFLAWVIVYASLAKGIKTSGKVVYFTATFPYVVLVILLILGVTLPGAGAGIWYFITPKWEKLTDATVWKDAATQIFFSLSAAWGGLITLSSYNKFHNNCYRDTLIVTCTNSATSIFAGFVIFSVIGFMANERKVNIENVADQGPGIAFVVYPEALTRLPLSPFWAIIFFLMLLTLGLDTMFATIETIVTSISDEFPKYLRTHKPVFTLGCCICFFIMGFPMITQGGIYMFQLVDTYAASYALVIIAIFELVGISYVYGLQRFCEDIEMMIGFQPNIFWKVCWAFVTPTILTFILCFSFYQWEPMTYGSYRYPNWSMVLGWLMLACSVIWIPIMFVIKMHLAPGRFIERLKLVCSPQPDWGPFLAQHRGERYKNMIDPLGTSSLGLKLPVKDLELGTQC
Procedure: Glycine was first applied to establish maximal transport current.
Compounds were tested for inhibition of glycine transport on Xenopus laevis oocytes expressing mutant GlyT1 and GlyT2 transporters. n values are in brackets, with measurements taken from at least 2 batches of oocytes.

[1] = system: GlyT2 F428A, V432A, Y550L, P561S, W563L and L569F mutants; assay: Screen of GlyT2 point mutants for inhibition by 1 µM oleoyl L-carnitine; type: cell-based, human; settings: range over F428A
Excerpt: The binding site for the allosteric serotonin reuptake inhibitor, (S)-citalopram, lies in the extracellular facing vestibule of SERT, formed by residues from TM1b, TM6a, TM10, and TM11 ([Coleman et al., 2016]). To determine if bioactive lipids inhibit GlyT2 by binding to this ‘vestibule allosteric site,’ corresponding residues in GlyT2 were mutated to remove potential interactions. OLCarn contains a bulky, zwitterionic head group conjugated to an oleoyl lipid tail, and was used as a screen to test mutant transporters for sensitivity to inhibition. None of the transporters containing mutations in the vestibule allosteric site display any change in inhibition compared to WT (Figure 1a). […] Mutations to GlyT2 residues were made either to resemble GlyT1, or to remove potential interactions with bioactive lipids but not disrupt the overall transport activity, often using substitutions present in the bacterial homologue, LeuT.
Figure 1. Defining the bioactive lipid binding site. (a) Inhibition of GlyT2 by 1 µM oleoyl L-carnitine. Transporters were WT or with mutations to the vestibule allosteric site (VAS) or adjacent to EL4. The reduced glycine transport currents were normalised to the current elicited by glycine alone. Data represented are means ± SEM with ****p<0.001 following a one way ANOVA test. […]

Compound: NCC(=O)O [Glycine]
EC50 (GlyT2 R439L mutant; glycine transport, GlyT2 R439L (TM5)): 23 ± 4 µM

Compound: CCCCCCCC/C=C\CCCCCCCC(=O)O[C@H](CC(=O)[O-])C[N+](C)(C)C [oleoyl L-Carnitine, reference compound]
inhibition of glycine transport current [1]: 14.9–29.0%

IC50 (GlyT2 R439L mutant; GlyT2 R439L, mean (95% CI)): 0.109 µM
% Max. inhibition (GlyT2 R439L mutant; GlyT2 R439L, mean ± SEM): 75.3 ± 4.2 (p=0.1040) %
Compound: CCCCCCCC/C=C\CCCCCCCC(=O)N[C@@H](Cc1c[nH]c2ccccc12)C(=O)O [oleoyl l-Tryptophan]

Source: paper PMC6797481, “Identification of an allosteric binding site on the human glycine transporter, GlyT2, for bioactive lipid analgesics” (eLife, 2019)
